What was measured:
Type in all cases: cell-based, human
Jurkat cells = assay: NeuAz expression on the cell surface by SPAAC with DBCO-Cy5 and flow cytometry, competition with Ac4ManNAz (1c); conditions: for NeuAz expression upon co-incubation with Ac4ManNAz: Ac4ManNAz (Z) 50 μM plus analogue at 10, 25, 50 μM; for NeuAz expression upon co-incubation with Ac4ManNAz / reduction in NeuAz expression upon co-incubation: 24 h; for reduction in NeuAz expression upon co-incubation: 0-50 μM with 1c 50 μM, simultaneous addition
Experimental: FIG. 5 illustrates competitive processing by compounds of the present invention (ManNAc compounds). ManNAc compounds competitively reduce the expression of N-azidoacetyl-D-neuraminic acid (NeuAz)-carrying sialoglycans through the metabolic processing of Ac4ManNAz. Jurkat (human T-lymphoma) cells were incubated with Ac4ManNAz (Z) (50 μM) alone, co-incubated with GL-2, GL-3, MA-2, or MA-3 (at various concentrations such as 10,
25, and 50 μM) for 24 h. Expression of N-azidoacetyl-D-neuraminic acid (NeuAz) on the cell surface sialoglycans was estimated using strain-promoted azide-alkyne cycloaddition (SPAAC) with DBCO-Cy5 and analyzed by flow cytometry. […] GL-2 was used for comparative study and the structure of this compound is as below.
Jurkat cells (3.0×10^5 cells/mL; 2.5 mL per well in 6-well plates) in complete medium were treated with either vehicle (D) or Compound 1c; Untreated Jurkat cells, without addition of vehicle, were also included as additional controls. Cells were harvested at 48 h, washed thrice with PBS (3×0.5 mL) (3000×g, 2.0 min). Prior to the last wash cells were counted and were aliquoted to 1.0×10^6 cells per sample in 1.5 mL microcentrifuge tubes and centrifuged. The cells were gently resuspended in PBS ([…]) and treated with DBCO-Cy5 ([…]) and incubated at 37° C. (on a Torrey-Pines dry heating bath with mild shaking). After one hour, the cells were washed using FSB (0.5 mL, 3000×g, 2.0 min, room temperature), resuspended in PBS (250 mL), treated with PI (2.5 mg/mL), and analyzed using BD FACSCanto and FACSDiva Version 6.1.3. The cells were gated for PI-negative population for 10,000 events. Two replicate samples were prepared for each conditions and each sample was counted twice.
Estimation of NeuAz expression by 1c in the presence of peracetylated ManNAc analogues: Jurkat cells (3.0×10^5 cells/mL in 3.0 mL per well in 6-well plates) were incubated with (i) D, (ii) 1a, 1b, 1c, or 1d alone (50 mM) or (iii) 1a, 1b, or 1d (50 mM) in combination with 1c (50 mM). After 24 h, cells were harvested, washed using FSB, aliquoted to 5.0×10^5 cells per sample, and processed as mentioned above for estimation of NeuAz expression using DBCO-Cy5 ([…]). Experiments using HL-60 cells were performed using the same procedure. […]
Effect of GlcNAc and ManNAc analogues on NeuAz expression: Jurkat cells were treated with 1a, 1b, 2a, or 2b (10, 25, and 50 mM for each analogue) in combination with 1c (50 mM). Cells treated with 1c (50 mM) alone were considered as a reference. After 24 h, cells were harvested, processed, labelled with DBCO-Cy5 ([…]), and analysed by flow cytometry as mentioned above.
In order to evaluate the metabolism, Jurkat (human T-lymphoma) cells were selected and incubated with ManNAc analogues either alone (50 μM) or in combination with 1c (50 μM) for 48 h. Expression of NeuAz on cell surface was estimated by flow cytometry through the copper-free bio-orthogonal strain-promoted azide-alkyne cycloaddition (SPAAC) reaction using dibenzocyclooctyne-Cy5 (DBCO-Cy5). The conditions for click reaction were optimized for various concentrations of DBCO-Cy5 and time course of SPAAC reaction in Jurkat cells. Based on the optimization results, incubation time of 30 min at 37° C. for 5.0×10^5 cells (pre-incubated with 1c for 48 h) with 20 μM of DBCO-Cy5 in 100 μL total volume for experiments with ManNAc analogues was chosen. […] In order to test the dose-dependency of this inhibitory effect on NeuAz expression and to establish competitive metabolic processing, Jurkat cells were first treated with either 1a or 1b (0-50 μM) followed by addition of 1c (50 μM) at 12 h and estimation of NeuAz at 48 h. As expected, the suppression of NeuAz expression was substantially higher when added with a 12 h delay compared to simultaneous addition, in a dose-dependent manner. […] By contrast simultaneous addition resulted only in a 10% reduction of NeuAz for both 1a and 1b (FIG. 6C and FIG. 7B).

HL-60 cells [1] = assay: Cell surface sialyl-Lewis-X (CD15s) by anti-CD15s (CSLEX1) flow cytometry; conditions: 50 μM, 24 h
Experimental: Effect of ManNAc analogues on the expression of sialyl-Lewis-X and Lewis-X: HL-60 cells (3.0×10^5 cells/mL in 2.0 mL complete medium in 6 well plate) were treated with D (vehicle), 1a, 1b, 1c, 1d, 1e, 1f, or 1g (50 PM), along with untreated (U) control. After 24 h, cells were harvested and washed with PBS (3×0.5 mL, 3000×g, 3.0 min at room temperature). Prior to last wash, cells were counted using Z2 coulter counter and aliquoted at 2.5×10^5 cells per sample and stained with either mouse anti-human CD15s (CSLEX1) (1.25 μg/mL) or mouse anti-human CD15 (HI98) (2.5 μg/mL) in HEPES/CaCl2) buffer (30 mM HEPES, 110 mM NaCl, 10 mM KCl, 2 mM MgCl2, 10 mM glucose, 1.5 mM CaCl2) containing 0.1% bovine serum albumin, pH 7.3) (total volume of 100 μL) for 30 min at 4° C. Cells were washed with HEPES/CaCl2 buffer (2×0.5 mL) and stained with AlexaFluor488-conjugated anti-mouse IgM (2.5 μg/mL) (for both CD15s and CD15) in 100 μL HEPES/CaCl2 for 30 min at 4° C. Cells were washed with HEPES/CaCl2 buffer (2×0.5 mL), resuspended in PBS (0.2 mL), treated with PI (2.5 μg/ml) and analysed by BD FACSVerse. Samples treated with (i) isotype antibodies followed by secondary antibody and (ii) secondary antibody alone were prepared as controls. Single Cells were gated for PI-negative population for 10,000 events and analysed by flow cytometry. Two replicate samples were prepared for each condition and each sample was counted twice. Three independent experiments were performed. Data was analysed using FlowJo V10. For plotting graph and calculation of significant probability ‘p’ values, two-way ANOVA with Dunnett's multiple comparison tests was employed in GraphPad Prism 8.
Time course of CD15s expression: HL-60 cells (3.0×10^5 cells/mL in 2.5 mL complete medium in 6-well plates) were incubated with D, 1a, 1b, or 1d (50 mM). At each time point, from day 1 to day 6, the cells were harvested from the entire contents of the well, washed, and aliquoted to 5.0×10^5 cells per sample, and immuno-stained using anti-CD15s (CSLEX1) antibody as mentioned above. On day 3, 4, and 5 complete media (1.0 mL) was added to each remaining well in order to compensate for media exhaustion. No contents were removed from the well during the period.

HL-60 cells [2] = assay: Cell density as a measure of proliferation/cytotoxicity; conditions: 100 μM, cell density measured at 24, 48, and 72 h
HL-60 cells [3] = assay: Total and glycoside bound sialic acids by periodate-resorcinol assay; conditions: 100 μM, 48 h
Experimental: Total sialic acids were measured following reported procedures. HL-60 cells (3.0×10^5 cells/mL in 10 mL complete medium in 10 cm diameter Petri dishes) were incubated with D, 1a, 1b, 1c, 1d, 1e, 1f, 1g, 2a, or 2b (100 mM each), along with untreated (U) controls. After 48 h, cells were harvested, washed with PBS (3×5.0 mL; 3000×g, for 2.0 min), aliquoted to 2×10^6 cells per sample and resuspended in PBS (150 mL) in 1.5 mL microcentrifuge tubes. Cells were lyzed by three freeze-thaw cycles and the total lysates were subjected to periodate-resorcinol assay. Briefly, lysates (150 mL) were treated with 0.4 M aqueous periodic acid (6.67 mM) or (2.5 mL) and incubated either on ice for 15 min (for measurement of total sialic acids) or at 37° C. for 1.0 h (for measurement of glycoconjugate bound sialic acids). About 10 mL of reagent cocktail was prepared using 6% w/v of aqueous resorcinol (1.0 mL), 2.5 mM copper (II) sulfate (1.0 mL), 44% of concentrated hydrochloric acid (4.4 mL), and water (3.6 mL). The mixture was then treated with the reagent cocktail (250 mL per sample), boiled at 100° C. for 10 min, rapidly quenched in an ice-bath and treated with tert-butanol (250 mL). The contents were centrifuged and the supernatants were aliquoted (200 mL) into 96-well plates and the absorbance at 630 nm was measured. At least three replicates were prepared for each condition.

HL-60 cells [4] = assay: NeuAz expression by SPAAC with DBCO-Cy5 and flow cytometry, competition with 1c; conditions: 50 μM with 1c 50 μM, 24 h
Experimental: Estimation of NeuAz expression by 1c in the presence of peracetylated ManNAc analogues: Jurkat cells (3.0×10^5 cells/mL in 3.0 mL per well in 6-well plates) were incubated with (i) D, (ii) 1a, 1b, 1c, or 1d alone (50 mM) or (iii) 1a, 1b, or 1d (50 mM) in combination with 1c (50 mM). After 24 h, cells were harvested, washed using FSB, aliquoted to 5.0×10^5 cells per sample, and processed as mentioned above for estimation of NeuAz expression using DBCO-Cy5 ([…]). Experiments using HL-60 cells were performed using the same procedure.
Having confirmed metabolic acceptability in Jurkat cells, the compounds were tested on HL-60 (human acute myeloid leukemia) cells which are a reliable model for neutrophil adhesion. The effect on competitive suppression of NeuAz expression was studied using 1c as a reporter. HL-60 cells were treated with 1c either alone (50 μM) or in combination with ManNAc analogues (50 μM), including the straight chain derivatives, for 24 h followed by DBCO-Cy5 ligation. […] The decreasing ability of linear alkyl moieties (1d-1g), as a function of chain length, for suppression of NeuAz expression is in contrast to the cycloalkyl moieties. […] Similarly, 1a induced a reduction of 40% compared to only a 15% reduction by 1f.

Compound: CC(=O)OC[C@H]1OC(OC(C)=O)[C@@H](NC(=O)C2CCC2)[C@@H](OC(C)=O)[C@@H]1OC(C)=O (mixture of isomers) [Compound 1b, (3S,4R,5S,6R)-6-(acetoxymethyl)-3-(cyclobutanecarboxamido)tetrahydro-2H-pyran-2,4,5-triyl triacetate]
- NeuAz expression upon co-incubation with Ac4ManNAz (Jurkat cells): reduced competitively in a dose-dependent manner

Compound: CC(=O)OC[C@H]1OC(OC(C)=O)[C@H](NC(=O)C2CCC2)[C@@H](OC(C)=O)[C@@H]1OC(C)=O (mixture of isomers) [Compound 2b, (3R,4R,5S,6R)-6-(acetoxymethyl)-3-(cyclobutanecarboxamido)tetrahydro-2H-pyran-2,4,5-triyl triacetate]
- NeuAz expression upon co-incubation with Ac4ManNAz (Jurkat cells): not

Compound: CC(=O)OC[C@H]1O[C@H](OC(C)=O)[C@@H](NC(=O)CN=[N+]=[N-])[C@@H](OC(C)=O)[C@@H]1OC(C)=O [Compound 1c, 1,3,4,6-tetra-O-acetyl-2-azidoacetylamino-2-deoxy-α-D-mannopyranose]
- increase in binding of CSLEX1 antibody (sLeX) compared to controls (HL-60 cells [1]): 1.4 fold
- NeuAz expression / DBCO-Cy5 signal, compound alone (Jurkat cells; 50 μM alone, 48 h): robust expression of NeuAz
- decrease in cell density (HL-60 cells [2]): ~10%
- glycoside bound sialic acid levels (in words) (HL-60 cells [3]): comparable to untreated cells

Compound: CCC(=O)N[C@@H]1[C@@H](OC(C)=O)O[C@H](COC(C)=O)[C@@H](OC(C)=O)[C@@H]1OC(C)=O [Compound 1e, 1,3,4,6-tetra-O-acetyl-2-(1-propanoyl)amino-2-deoxy-α-D-mannopyranose]
- increase in binding of CSLEX1 antibody (sLeX) compared to controls (HL-60 cells [1]): ~2.5 fold
- increase in glycoside bound sialic acid levels (HL-60 cells [3]): ~10%
- increase in total sialic acid levels vs untreated cells (HL-60 cells [3]): 2.3 fold
- ratio of total sialic acids to glycoside bound sialic acids vs untreated cells (HL-60 cells [3]): higher ratios of free sialic acid
- NeuAz expression with respect to 1c alone (100%) (HL-60 cells [4]): 65%
- suppression of NeuAz expression (in words) (HL-60 cells [4]): significant suppression

Compound: CC(=O)OC[C@H]1O[C@@H](OC(C)=O)[C@H](NC(=O)C2CC2)[C@@H](OC(C)=O)[C@@H]1OC(C)=O [Compound 2a, 1,3,4,6-tetra-O-acetyl-2-cyclopropanoylamino-2-deoxy-β-D-glucopyranose]
- reduction in NeuAz expression upon co-incubation (Jurkat cells): negligible reduction
- NeuAz expression upon co-incubation with Ac4ManNAz (Jurkat cells): not
- decrease in cell density (HL-60 cells [2]): ~10%
- glycoside bound sialic acid levels (in words) (HL-60 cells [3]): comparable to untreated cells
- ratio of total sialic acids to glycoside bound sialic acids vs untreated cells (HL-60 cells [3]): lower ratios
- total sialic acid levels (in words) (HL-60 cells [3]): comparable to untreated cells

Compound: CC(=O)OC[C@H]1OC(OC(C)=O)[C@H](NC(=O)C2CCC2)[C@@H](OC(C)=O)[C@@H]1OC(C)=O (stereo partly drawn) [Compound 2b, (3R,4R,5S,6R)-6-(acetoxymethyl)-3-(cyclobutanecarboxamido)tetrahydro-2H-pyran-2,4,5-triyl triacetate]
- reduction in NeuAz expression upon co-incubation (Jurkat cells): negligible reduction
- decrease in cell density (HL-60 cells [2]): ~10%
- glycoside bound sialic acid levels (in words) (HL-60 cells [3]): comparable to untreated cells
- ratio of total sialic acids to glycoside bound sialic acids vs untreated cells (HL-60 cells [3]): lower ratios
- total sialic acid levels (in words) (HL-60 cells [3]): comparable to untreated cells
